Data taken from US20260191965A1 (priority 2022, published 2026).

What was measured:
[1] = system: clinical isolates of Mycobacterium tuberculosis; assay: microbe, parasite or virus in culture; type: cell-based
[2] = system: Mycobacterium tuberculosis H37Rv (ATCC 27294); type: cell-based

SMILES	MIC range against tuberculosis strains resistant to rifampicin and metronidazole [1]	effect on growth of rifamycin-sensitive and rifamycin-resistant tuberculosis strains under anaerobic conditions [2]
CO[C@H]1/C=C/O[C@@]2(C)Oc3c(C)c(O)c4c(c3C2=O)C2=NC3(CCN(CCn5c([N+](=O)[O-])cnc5C)CC3)NC2=C(NC(=O)/C(C)=C\C=C\[C@H](C)[C@H](O)[C@@H](C)[C@@H](O)[C@@H](C)[C@H](OC(C)=O)[C@@H]1C)C4=O	0.5 to 2 mg/L	–
Cc1ncc([N+](=O)[O-])n1CCO [Metronidazole, metronidazole]	–	a certain inhibitory effect
